{"source": "patent US20200383905A1", "about": "(priority 2015, published 2020)", "key": {"[1]": {"test_system": "experienced opioid abusers", "settings": "tramadol 100 and 200 mg IV, cited from earlier work; for Ratings of feel drug effect compared to placebo / Ratings of liking: morphine 10 and 20 mg IV over 5 minutes; for Ratings of feel drug effect compared to placebo: 10 experienced opioid abusers"}, "postoperative pain": {"test_system": "postoperative pain", "settings": "IV or IM intermittent injection, dose titrated to pain response; cited from earlier work"}, "[2]": {"settings": "in vivo; cited from earlier work"}, "[3]": {"settings": "oral administration; cited from earlier work"}, "[4]": {"settings": "mean cumulative doses 449 to 868.3 mg over 24, 36 and 48 h; cited from earlier work"}, "[5]": {"experiment": "Observed steady-state PK of oral tramadol Q6h (threshold PK parameters)", "settings": "for AUC / Cmax: human, plasma, po"}, "[6]": {"experiment": "Example 5: multiple-dose 3-way crossover PK study of two IV regimens vs 100 mg oral Q6h", "settings": "for Cmax: human, plasma, iv, 50 mg, 50 mg IV regimen; for AUCtau 1: first dosing interval", "source_text": "The term “STD” as used herein means standard deviation. […] The term “Css” means steady-state concentration. The term “Cmax” means maximum concentration. The term “AUC” means area under the curve. […] The term “PIT” means peak to trough."}, "[7]": {"settings": "cited from earlier work"}, "rats and dogs": {"test_system": "rats and dogs", "settings": "repeat-dose; cited from earlier work"}, "animal model": {"test_system": "animal model", "settings": "cited from earlier work"}, "μ opioid": {"test_system": "μ opioid", "settings": "animal model; cited from earlier work"}, "[8]": {"settings": "plasma tramadol, 50 mg IV at h 0, 2, 4 then q4h, mean"}, "[9]": {"settings": "plasma tramadol, 75 mg IV at h 0, 3, 6 then q6h, mean"}, "[10]": {"settings": "plasma tramadol, 100 mg oral q6h, mean"}, "[11]": {"settings": "60 mg oral tramadol dose, by extrapolation"}, "[12]": {"settings": "100 mg oral tramadol Q6h, steady-state, geometric mean, observed"}, "[13]": {"settings": "120 mg oral tramadol dose, by extrapolation"}, "[14]": {"settings": "plasma 0-desmethyltramadol, tramadol 50 mg IV at h 0, 2, 4 then q4h, mean"}, "[15]": {"settings": "plasma 0-desmethyltramadol, tramadol 75 mg IV at h 0, 3, 6 then q6h, mean"}, "[16]": {"settings": "plasma 0-desmethyltramadol, tramadol 100 mg oral q6h, mean"}}, "note": "Where a name gives a salt, the structure may show the parent alone. Read-outs that look alike come from different tables or passages of the source.", "data": [{"smiles": "CN1CC[C@]23c4c5ccc(O)c4O[C@H]2[C@@H](O)C=C[C@H]3[C@H]1C5", "note": "[morphine]", "values": [{"measurement": "Ratings on the ARCI-MBG scale", "setting": "[1]; morphine 20 mg IV over 5 minutes", "result": "increased ratings on the ARCI-MBG scale"}, {"measurement": "Ratings of feel drug effect compared to placebo", "setting": "[1]", "result": "significantly increased ratings"}, {"measurement": "Ratings of liking", "setting": "[1]", "result": "significantly increased ratings"}, {"measurement": "Reduction of pain intensity after 4 to 6 hours", "setting": "postoperative pain", "result": 69.8, "unit": "%"}]}, {"smiles": "COc1cccc([C@]2(O)CCCC[C@H]2CN(C)C)c1", "note": "(racemic) [Tramadol, (±)cis-2-[(dimethylamino)methyl]-1-(3-methoxyphenyl) cyclohexanol hydrochloride]", "values": [{"measurement": "Time to reach steady-state", "setting": "[2]", "result": "42 to 48", "unit": "h"}, {"measurement": "Fertility or teratogenic effects", "setting": "[3]", "result": "no safety concerns with respect to fertility or teratogenic effects"}, {"measurement": "Serious adverse effects", "setting": "[4]", "result": "no serious adverse effects were observed"}, {"measurement": "AUC", "setting": "[5]; 50 mg", "result": 1640, "unit": "ng·h/mL"}, {"measurement": "Cmax", "setting": "[5]; 50 mg", "result": 340, "unit": "ng/mL"}, {"measurement": "Cmax", "setting": "[5]; 60 mg", "result": 408, "unit": "ng/mL"}, {"measurement": "AUC", "setting": "[5]; 100 mg", "result": 3230, "unit": "ng·h/mL"}, {"measurement": "Cmax", "setting": "[5]; 100 mg", "result": 676, "unit": "ng/mL"}, {"measurement": "AUC", "setting": "[5]; 120 mg", "result": 3880, "unit": "ng·h/mL"}, {"measurement": "Cmax", "setting": "[5]; 120 mg", "result": 811, "unit": "ng/mL"}, {"measurement": "Ratings of feel drug effect compared to placebo", "setting": "[1]", "result": "significantly increased ratings"}, {"measurement": "Ratings of liking", "setting": "[1]", "result": "neither dose of tramadol increased ratings"}, {"measurement": "Cmax", "setting": "[6]; Mean Cmax after the first dose, plasma tramadol", "result": "~273", "unit": "ng/mL"}, {"measurement": "Cmax", "setting": "[6]; Mean Cmax after the second dose, plasma tramadol", "result": "~451", "unit": "ng/mL"}, {"measurement": "Cmax", "setting": "[6]; Mean Cmax concentration after the third administered dose, plasma tramadol", "result": "~666", "unit": "ng/mL"}, {"measurement": "C48", "setting": "[6]; [8]", "result": 448, "unit": "ng/mL"}, {"measurement": "Cmax(2-4)", "setting": "[6]; [8]", "result": 479, "unit": "ng/mL"}, {"measurement": "P/T Ratio First", "setting": "[6]; [8]", "result": 1.4566}, {"measurement": "P/T Ratio Last", "setting": "[6]; [8]", "result": 1.6370}, {"measurement": "C48", "setting": "[6]; [9]", "result": 354, "unit": "ng/mL"}, {"measurement": "P/T Ratio First", "setting": "[6]; [9]", "result": 2.0658}, {"measurement": "P/T Ratio Last", "setting": "[6]; [9]", "result": 2.3692}, {"measurement": "C48", "setting": "[6]; [10]", "result": 497, "unit": "ng/mL"}, {"measurement": "P/T Ratio First", "setting": "[6]; [10]", "result": 1.9824}, {"measurement": "P/T Ratio Last", "setting": "[6]; [10]", "result": 1.4400}, {"measurement": "AUC0-24h", "setting": "[7]; 100 mg i.v.", "result": "3709 ± 977", "unit": "ng·h/mL"}, {"measurement": "Vd", "setting": "[7]; 100 mg i.v.", "result": 203, "unit": "L"}, {"measurement": "t1/2", "setting": "[7]; 100 mg i.v.", "result": 5.2, "unit": "h"}, {"measurement": "AUC0-24h", "setting": "[7]; 100 mg p.o.", "result": "2488 ± 774", "unit": "ng·h/mL"}, {"measurement": "Cmax", "setting": "[7]; 100 mg p.o.", "result": "280 ± 49", "unit": "ng/mL"}, {"measurement": "Vd", "setting": "[7]; 100 mg p.o.", "result": 306, "unit": "L"}, {"measurement": "Distribution half-life, initial phase", "setting": "[7]; IV administration", "result": "0.31 ± 0.17", "unit": "h"}, {"measurement": "Half-life of slower distribution phase", "setting": "[7]; IV administration", "result": "1.7 ± 0.4", "unit": "h"}, {"measurement": "Absolute bioavailability with continuous dosing", "setting": "[7]; oral, continuous dosing (Liao 1992)", "result": "90-100%"}, {"measurement": "Dose with behavioral/clinical signs and convulsions", "setting": "rats and dogs", "result": "> 25", "unit": "mg/kg/day"}]}, {"smiles": "CN(C)C[C@H]1CCCC[C@]1(O)c1cccc(O)c1", "note": "[M1, 0-desmethyltramadol]", "values": [{"measurement": "Potency in producing analgesia, times more potent than the parent compound", "setting": "animal model", "result": 6, "unit": "times"}, {"measurement": "M1 AUC6", "setting": "[5]; 50 mg oral tramadol dose", "result": 491, "unit": "ng·h/mL"}, {"measurement": "M1 Cmax", "setting": "[5]; 50 mg oral tramadol dose", "result": 96, "unit": "ng/mL"}, {"measurement": "M1 AUC6", "setting": "[5]; [11]", "result": 589, "unit": "ng·h/mL"}, {"measurement": "M1 Cmax", "setting": "[5]; [11]", "result": 115, "unit": "ng/mL"}, {"measurement": "M1 AUC6", "setting": "[5]; [12]", "result": 668, "unit": "ng·h/mL"}, {"measurement": "M1 Cmax", "setting": "[5]; [12]", "result": 125, "unit": "ng/mL"}, {"measurement": "M1 AUC6", "setting": "[5]; [13]", "result": 802, "unit": "ng·h/mL"}, {"measurement": "M1 Cmax", "setting": "[5]; [13]", "result": 150, "unit": "ng/mL"}, {"measurement": "Potency in μ opioid binding, times more potent than the parent compound", "setting": "μ opioid", "result": 200, "unit": "times"}, {"measurement": "AUCtau 1", "setting": "[6]; [14]", "result": 39.93, "unit": "ng·h/mL"}, {"measurement": "AUCtau n", "setting": "[6]; plasma 0-desmethyltramadol, tramadol 50 mg IV at h 0, 2, 4 then q4h, last dosing interval, mean", "result": 355.6, "unit": "ng·h/mL"}, {"measurement": "C48", "setting": "[6]; [14]", "result": 81.7, "unit": "ng/mL"}, {"measurement": "AUCtau 1", "setting": "[6]; [15]", "result": 108.3, "unit": "ng·h/mL"}, {"measurement": "C48", "setting": "[6]; [15]", "result": 75.9, "unit": "ng/mL"}, {"measurement": "AUCtau 1", "setting": "[6]; [16]", "result": 272.1, "unit": "ng·h/mL"}, {"measurement": "C48", "setting": "[6]; [16]", "result": 111, "unit": "ng/mL"}, {"measurement": "Cmax(42-48)", "setting": "[6]; plasma 0-desmethyltramadol, tramadol 100 mg oral q6h, steady-state, mean", "result": "about 146 ng/mL"}]}]}
